Reference: ChEMBL document CHEMBL3991601, “The target landscape of clinical kinase drugs” (Science, 2017)
Structures can show the parent of a compound that is named as a salt. Each block holds one compound with its values, some of them ahead of it. The source made the active and inactive calls.

Experiments:
[1] = biological target: Tyrosine-protein kinase ABL1 (Homo sapiens, UniProt P00519)
[2] = biological target: Cyclin-dependent kinase 1 (Homo sapiens, UniProt P06493)
[3] = biological target: Cyclin-dependent kinase 4 (Homo sapiens, UniProt P11802)
Sequence of Cyclin-dependent kinase 4 (P11802 whole entry): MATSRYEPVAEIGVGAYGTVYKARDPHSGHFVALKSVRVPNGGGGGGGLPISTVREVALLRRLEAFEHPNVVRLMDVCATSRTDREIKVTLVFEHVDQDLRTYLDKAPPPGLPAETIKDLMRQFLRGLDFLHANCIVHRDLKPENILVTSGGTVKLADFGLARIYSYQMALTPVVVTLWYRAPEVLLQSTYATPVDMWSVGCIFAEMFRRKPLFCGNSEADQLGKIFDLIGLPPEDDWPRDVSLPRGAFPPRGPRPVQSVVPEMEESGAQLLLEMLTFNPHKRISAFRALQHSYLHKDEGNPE

Ephrin type-B receptor 2 = biological target: T1, Ephrin type-B receptor 2 (Homo sapiens, UniProt P29323)
T1 sequence (P29323 whole entry): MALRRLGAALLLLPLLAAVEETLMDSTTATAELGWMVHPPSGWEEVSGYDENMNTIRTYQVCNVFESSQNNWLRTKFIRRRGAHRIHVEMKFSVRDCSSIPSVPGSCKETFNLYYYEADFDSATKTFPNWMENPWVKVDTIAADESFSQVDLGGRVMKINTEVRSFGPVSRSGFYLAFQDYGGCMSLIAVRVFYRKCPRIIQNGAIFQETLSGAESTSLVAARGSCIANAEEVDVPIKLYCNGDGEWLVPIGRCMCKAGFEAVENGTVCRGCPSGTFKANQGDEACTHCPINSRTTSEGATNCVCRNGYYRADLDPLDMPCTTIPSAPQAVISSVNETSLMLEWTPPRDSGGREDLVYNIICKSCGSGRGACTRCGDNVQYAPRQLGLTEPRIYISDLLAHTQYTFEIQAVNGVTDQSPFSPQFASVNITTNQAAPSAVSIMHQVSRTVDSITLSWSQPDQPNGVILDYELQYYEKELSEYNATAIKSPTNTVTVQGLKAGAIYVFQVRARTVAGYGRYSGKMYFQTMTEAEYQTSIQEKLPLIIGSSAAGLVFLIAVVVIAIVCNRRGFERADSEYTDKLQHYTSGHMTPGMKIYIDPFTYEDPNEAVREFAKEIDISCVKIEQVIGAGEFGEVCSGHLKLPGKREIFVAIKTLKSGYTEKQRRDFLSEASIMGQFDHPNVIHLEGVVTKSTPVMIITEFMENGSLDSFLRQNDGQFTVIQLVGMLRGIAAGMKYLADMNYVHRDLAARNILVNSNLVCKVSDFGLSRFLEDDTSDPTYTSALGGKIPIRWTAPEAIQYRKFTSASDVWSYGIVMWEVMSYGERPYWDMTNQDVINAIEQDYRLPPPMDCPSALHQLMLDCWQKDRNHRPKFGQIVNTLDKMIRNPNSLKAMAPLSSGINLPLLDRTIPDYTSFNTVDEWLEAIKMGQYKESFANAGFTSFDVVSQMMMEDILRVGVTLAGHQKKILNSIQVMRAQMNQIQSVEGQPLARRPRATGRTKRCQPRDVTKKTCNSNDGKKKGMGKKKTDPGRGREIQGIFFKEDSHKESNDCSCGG

[4] = biological target: Fibroblast growth factor receptor 1 (Homo sapiens, UniProt P11362)
Sequence of Fibroblast growth factor receptor 1 (P11362 whole entry): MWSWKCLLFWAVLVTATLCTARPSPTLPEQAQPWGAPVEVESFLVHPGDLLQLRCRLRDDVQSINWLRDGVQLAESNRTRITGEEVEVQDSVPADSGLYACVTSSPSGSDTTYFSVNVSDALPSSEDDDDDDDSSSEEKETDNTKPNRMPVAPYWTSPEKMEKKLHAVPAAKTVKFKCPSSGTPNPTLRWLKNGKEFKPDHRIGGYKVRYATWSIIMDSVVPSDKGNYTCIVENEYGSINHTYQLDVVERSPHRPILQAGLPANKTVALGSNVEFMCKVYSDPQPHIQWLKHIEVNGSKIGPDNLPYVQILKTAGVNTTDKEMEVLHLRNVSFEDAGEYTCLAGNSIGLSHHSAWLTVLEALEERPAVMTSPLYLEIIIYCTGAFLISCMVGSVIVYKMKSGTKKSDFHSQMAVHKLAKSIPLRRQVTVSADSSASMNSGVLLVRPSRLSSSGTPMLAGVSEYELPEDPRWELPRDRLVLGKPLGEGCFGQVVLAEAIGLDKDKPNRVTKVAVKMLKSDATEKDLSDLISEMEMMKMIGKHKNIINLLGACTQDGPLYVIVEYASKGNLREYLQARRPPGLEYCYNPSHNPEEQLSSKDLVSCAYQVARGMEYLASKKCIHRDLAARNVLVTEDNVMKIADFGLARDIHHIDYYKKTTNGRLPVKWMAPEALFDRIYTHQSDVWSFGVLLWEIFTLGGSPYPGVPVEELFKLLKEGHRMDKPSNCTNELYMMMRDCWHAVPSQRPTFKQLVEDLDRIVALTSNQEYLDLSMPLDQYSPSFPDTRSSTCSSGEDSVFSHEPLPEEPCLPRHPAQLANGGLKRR

[5] = biological target: T2, Dual specificity mitogen-activated protein kinase kinase 3 (Homo sapiens, UniProt P46734)
T2 sequence (P46734 whole entry): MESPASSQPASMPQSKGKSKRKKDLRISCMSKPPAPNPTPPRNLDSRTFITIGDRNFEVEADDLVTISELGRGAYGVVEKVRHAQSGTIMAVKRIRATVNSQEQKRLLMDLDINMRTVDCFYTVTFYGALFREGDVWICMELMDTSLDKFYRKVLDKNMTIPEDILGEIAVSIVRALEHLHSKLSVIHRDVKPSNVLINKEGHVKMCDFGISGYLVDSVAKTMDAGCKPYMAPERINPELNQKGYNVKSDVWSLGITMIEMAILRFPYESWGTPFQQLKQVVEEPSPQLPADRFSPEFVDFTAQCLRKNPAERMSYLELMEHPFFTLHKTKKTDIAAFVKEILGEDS

[6] = biological target: Mitogen-activated protein kinase 11 (Homo sapiens, UniProt Q15759)
Sequence of Mitogen-activated protein kinase 11 (Q15759 whole entry): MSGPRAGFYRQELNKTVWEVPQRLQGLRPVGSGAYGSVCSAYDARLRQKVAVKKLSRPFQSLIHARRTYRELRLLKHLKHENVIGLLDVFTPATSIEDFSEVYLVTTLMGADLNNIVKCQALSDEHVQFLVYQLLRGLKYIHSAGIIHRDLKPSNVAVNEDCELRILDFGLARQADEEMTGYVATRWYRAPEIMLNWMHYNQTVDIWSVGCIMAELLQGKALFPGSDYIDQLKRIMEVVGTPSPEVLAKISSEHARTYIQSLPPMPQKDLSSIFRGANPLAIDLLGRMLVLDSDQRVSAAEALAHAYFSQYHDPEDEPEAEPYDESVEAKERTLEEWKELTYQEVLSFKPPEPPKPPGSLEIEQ

[7] = biological target: cAMP-dependent protein kinase catalytic subunit alpha (Homo sapiens, UniProt P17612)
[8] = biological target: T3, cGMP-dependent protein kinase 1 (Homo sapiens, UniProt Q13976)
T3 sequence (Q13976 whole entry): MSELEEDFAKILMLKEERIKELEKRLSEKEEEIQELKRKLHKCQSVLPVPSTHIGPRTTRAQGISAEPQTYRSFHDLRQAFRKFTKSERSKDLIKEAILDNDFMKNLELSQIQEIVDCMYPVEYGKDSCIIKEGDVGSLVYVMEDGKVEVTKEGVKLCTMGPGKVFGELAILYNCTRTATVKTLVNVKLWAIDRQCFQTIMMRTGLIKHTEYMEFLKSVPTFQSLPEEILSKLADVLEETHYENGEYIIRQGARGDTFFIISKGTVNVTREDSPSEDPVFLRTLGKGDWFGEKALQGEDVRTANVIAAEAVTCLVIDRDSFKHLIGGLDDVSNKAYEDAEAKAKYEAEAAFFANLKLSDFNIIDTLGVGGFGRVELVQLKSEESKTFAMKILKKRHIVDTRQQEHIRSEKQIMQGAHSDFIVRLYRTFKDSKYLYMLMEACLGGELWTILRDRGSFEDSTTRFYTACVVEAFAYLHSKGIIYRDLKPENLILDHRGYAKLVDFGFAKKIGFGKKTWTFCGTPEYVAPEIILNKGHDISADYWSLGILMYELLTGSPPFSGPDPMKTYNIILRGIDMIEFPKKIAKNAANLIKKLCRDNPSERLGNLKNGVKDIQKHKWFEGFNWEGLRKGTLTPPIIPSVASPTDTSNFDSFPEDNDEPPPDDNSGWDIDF

Focal adhesion kinase 1 = Focal adhesion kinase 1 (Homo sapiens, UniProt Q05397)
Sequence of Focal adhesion kinase 1 (Q05397 whole entry): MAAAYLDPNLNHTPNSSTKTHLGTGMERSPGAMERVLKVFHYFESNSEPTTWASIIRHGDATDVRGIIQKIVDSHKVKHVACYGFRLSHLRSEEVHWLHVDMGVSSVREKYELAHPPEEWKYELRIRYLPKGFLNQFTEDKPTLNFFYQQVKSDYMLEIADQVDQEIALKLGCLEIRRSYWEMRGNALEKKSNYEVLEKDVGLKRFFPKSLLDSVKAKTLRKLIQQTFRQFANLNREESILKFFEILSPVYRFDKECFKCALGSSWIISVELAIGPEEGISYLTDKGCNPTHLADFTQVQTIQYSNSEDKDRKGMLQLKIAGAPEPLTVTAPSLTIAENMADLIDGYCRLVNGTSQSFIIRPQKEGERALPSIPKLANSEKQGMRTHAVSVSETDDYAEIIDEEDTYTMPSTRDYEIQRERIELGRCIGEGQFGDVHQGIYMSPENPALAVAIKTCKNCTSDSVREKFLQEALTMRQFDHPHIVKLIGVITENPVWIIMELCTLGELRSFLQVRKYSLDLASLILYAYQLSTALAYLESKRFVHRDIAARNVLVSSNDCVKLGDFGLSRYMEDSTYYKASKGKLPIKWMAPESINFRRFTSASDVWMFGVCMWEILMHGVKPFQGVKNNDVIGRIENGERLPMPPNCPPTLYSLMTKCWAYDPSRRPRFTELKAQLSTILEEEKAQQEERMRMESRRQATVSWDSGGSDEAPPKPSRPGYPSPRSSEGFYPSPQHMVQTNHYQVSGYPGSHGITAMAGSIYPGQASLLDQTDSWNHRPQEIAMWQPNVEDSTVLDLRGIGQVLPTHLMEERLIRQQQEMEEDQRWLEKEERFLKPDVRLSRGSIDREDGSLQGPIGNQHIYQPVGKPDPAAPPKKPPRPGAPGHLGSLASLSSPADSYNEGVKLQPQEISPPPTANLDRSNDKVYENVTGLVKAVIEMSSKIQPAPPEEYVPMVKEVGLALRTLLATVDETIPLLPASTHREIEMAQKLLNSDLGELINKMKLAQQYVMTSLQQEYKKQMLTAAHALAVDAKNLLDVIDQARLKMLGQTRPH

[9] = biological target: U5 small nuclear ribonucleoprotein 200 kDa helicase (Homo sapiens, UniProt O75643)
Sequence of U5 small nuclear ribonucleoprotein 200 kDa helicase (O75643 whole entry): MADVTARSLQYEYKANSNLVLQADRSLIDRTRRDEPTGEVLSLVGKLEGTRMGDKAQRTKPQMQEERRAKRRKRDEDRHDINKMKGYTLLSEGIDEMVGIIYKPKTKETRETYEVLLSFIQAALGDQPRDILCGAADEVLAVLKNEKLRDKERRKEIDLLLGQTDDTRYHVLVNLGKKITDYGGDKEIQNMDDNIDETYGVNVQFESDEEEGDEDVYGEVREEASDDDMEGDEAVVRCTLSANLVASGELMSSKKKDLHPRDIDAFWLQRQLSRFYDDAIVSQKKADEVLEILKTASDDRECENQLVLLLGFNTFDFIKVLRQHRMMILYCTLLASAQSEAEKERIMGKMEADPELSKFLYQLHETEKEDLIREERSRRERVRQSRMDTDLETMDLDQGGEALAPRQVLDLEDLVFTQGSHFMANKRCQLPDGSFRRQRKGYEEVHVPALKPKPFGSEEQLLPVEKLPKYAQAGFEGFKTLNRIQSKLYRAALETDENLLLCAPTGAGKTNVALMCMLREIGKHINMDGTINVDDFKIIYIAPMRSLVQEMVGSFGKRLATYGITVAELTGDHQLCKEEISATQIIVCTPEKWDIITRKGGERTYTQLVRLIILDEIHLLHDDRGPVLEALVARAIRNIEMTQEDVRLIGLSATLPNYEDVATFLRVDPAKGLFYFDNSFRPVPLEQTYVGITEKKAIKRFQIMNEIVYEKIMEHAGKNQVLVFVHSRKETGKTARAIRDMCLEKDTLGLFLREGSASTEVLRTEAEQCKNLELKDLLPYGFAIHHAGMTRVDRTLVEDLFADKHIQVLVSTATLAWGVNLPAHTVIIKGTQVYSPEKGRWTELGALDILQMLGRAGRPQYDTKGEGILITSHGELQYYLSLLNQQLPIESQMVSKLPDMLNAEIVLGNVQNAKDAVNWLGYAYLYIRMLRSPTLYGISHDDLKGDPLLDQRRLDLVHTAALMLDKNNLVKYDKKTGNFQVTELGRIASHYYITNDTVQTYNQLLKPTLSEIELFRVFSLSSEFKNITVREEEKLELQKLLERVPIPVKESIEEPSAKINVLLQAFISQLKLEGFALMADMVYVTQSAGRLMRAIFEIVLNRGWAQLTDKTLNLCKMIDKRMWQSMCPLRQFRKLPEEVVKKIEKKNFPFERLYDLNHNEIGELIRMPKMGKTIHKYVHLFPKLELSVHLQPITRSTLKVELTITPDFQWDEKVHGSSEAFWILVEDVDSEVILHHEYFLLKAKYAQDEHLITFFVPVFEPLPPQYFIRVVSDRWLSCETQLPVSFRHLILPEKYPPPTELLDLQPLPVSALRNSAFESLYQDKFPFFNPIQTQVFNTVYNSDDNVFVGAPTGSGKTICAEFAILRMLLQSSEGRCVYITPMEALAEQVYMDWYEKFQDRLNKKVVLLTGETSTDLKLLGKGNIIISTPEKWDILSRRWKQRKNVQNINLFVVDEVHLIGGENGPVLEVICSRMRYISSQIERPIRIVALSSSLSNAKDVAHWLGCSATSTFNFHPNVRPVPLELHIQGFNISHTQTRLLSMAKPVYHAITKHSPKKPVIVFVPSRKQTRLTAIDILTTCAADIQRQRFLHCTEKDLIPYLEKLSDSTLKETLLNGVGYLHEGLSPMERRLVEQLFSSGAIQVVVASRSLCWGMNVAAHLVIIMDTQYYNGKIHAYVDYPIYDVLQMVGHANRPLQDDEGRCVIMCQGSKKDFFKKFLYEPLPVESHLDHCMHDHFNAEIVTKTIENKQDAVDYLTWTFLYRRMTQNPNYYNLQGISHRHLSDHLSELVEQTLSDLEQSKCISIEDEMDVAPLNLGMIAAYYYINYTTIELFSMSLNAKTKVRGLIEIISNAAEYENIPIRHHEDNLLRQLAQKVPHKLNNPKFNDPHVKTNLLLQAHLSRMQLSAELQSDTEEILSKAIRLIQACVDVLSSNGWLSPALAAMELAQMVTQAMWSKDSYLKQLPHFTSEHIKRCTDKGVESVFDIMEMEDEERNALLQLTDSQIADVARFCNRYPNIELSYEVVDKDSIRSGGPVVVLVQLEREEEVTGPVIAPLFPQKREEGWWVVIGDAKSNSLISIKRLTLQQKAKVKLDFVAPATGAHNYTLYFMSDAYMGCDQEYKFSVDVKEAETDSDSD

[10] = biological target: T4, Serine/threonine-protein kinase STK11 (Homo sapiens, UniProt Q15831)
T4 sequence (Q15831 whole entry): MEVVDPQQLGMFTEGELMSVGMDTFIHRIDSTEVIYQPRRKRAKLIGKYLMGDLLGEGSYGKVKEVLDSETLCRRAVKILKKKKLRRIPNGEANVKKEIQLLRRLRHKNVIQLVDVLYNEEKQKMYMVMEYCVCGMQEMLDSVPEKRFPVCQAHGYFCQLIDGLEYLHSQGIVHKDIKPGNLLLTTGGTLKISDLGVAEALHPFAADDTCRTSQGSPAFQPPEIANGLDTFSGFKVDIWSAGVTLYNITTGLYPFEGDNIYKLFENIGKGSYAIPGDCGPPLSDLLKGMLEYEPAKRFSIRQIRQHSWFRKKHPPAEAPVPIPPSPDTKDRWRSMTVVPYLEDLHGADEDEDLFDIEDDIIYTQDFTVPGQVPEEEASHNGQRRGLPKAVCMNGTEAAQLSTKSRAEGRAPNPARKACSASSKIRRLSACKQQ
Also: in the data inactive means no Kd found up to 30 µM.

Sequence of Cyclin-dependent kinase 1 (P06493 whole entry): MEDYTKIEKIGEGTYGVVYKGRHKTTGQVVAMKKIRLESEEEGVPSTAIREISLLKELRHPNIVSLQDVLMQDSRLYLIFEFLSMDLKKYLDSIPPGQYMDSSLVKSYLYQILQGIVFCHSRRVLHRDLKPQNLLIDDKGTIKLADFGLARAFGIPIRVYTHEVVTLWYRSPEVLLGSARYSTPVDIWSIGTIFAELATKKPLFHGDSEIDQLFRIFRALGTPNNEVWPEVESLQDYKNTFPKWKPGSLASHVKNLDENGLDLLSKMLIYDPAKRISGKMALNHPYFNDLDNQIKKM

Kd [1]: > 30 µM (inactive)
Kd [2]: > 30 µM (inactive)
Kd [3]: > 30 µM (inactive)
Kd (Ephrin type-B receptor 2): > 30 µM (inactive)
Kd [4]: > 30 µM (inactive)
Kd [5]: > 30 µM (inactive)
Kd [6]: > 30 µM (inactive)
Kd [7]: 23.2 µM (active)
Kd [8]: > 30 µM (inactive)
Kd (Focal adhesion kinase 1): > 30 µM (inactive)
Kd [9]: > 30 µM (inactive)
Kd [10]: > 30 µM (inactive)
Structure (SMILES): C[C@@H](N)c1ccc(C(=O)Nc2ccnc3[nH]ccc23)cc1 [Y-39983]

Kd [1]: 0.075 µM (active)
Kd [2]: > 30 µM (inactive)
Kd [3]: > 30 µM (inactive)
Kd (Ephrin type-B receptor 2): 2.51 µM (active)
Kd [4]: 0.009 µM (active)
Kd [5]: > 30 µM (inactive)
Kd [6]: > 30 µM (inactive)
Kd [7]: > 30 µM (inactive)
Kd [8]: > 30 µM (inactive)
Kd (Focal adhesion kinase 1): 0.022 µM (active)
Kd [9]: > 30 µM (inactive)
Kd [10]: 3.08 µM
Structure (SMILES): CC(C)c1cc(CNc2nc(Nc3cc(C4CC4)[nH]n3)cc(N3CCN(C)CC3)n2)on1 [XL-228]

Kd [1]: > 30 µM (inactive)
Kd [2]: > 30 µM (inactive)
Kd [3]: > 30 µM (inactive)
Kd (Ephrin type-B receptor 2): > 30 µM (inactive)
Kd [4]: > 30 µM (inactive)
Kd [5]: > 30 µM (inactive)
Kd [6]: > 30 µM (inactive)
Kd [7]: > 30 µM (inactive)
Kd [8]: > 30 µM (inactive)
Kd (Focal adhesion kinase 1): > 30 µM (inactive)
Kd [9]: > 30 µM (inactive)
Kd [10]: > 30 µM (inactive)
Structure (SMILES): CO[C@H]1C[C@@H]2CC[C@@H](C)[C@@](O)(O2)C(=O)C(=O)N2CCCC[C@H]2C(=O)O[C@H]([C@H](C)C[C@@H]2CC[C@@H](O)[C@H](OC)C2)CC(=O)[C@H](C)/C=C(\C)[C@@H](O)[C@@H](OC)C(=O)[C@H](C)C[C@H](C)/C=C/C=C/C=C/1C [SIROLIMUS]

Kd [1]: 0.31 µM (active)
Kd [2]: > 30 µM (inactive)
Kd [3]: > 30 µM (inactive)
Kd (Ephrin type-B receptor 2): 0.669 µM (active)
Kd [4]: 1.39 µM (active)
Kd [5]: > 30 µM (inactive)
Kd [6]: > 30 µM (inactive)
Kd [7]: > 30 µM (inactive)
Kd [8]: > 30 µM (inactive)
Kd (Focal adhesion kinase 1): 0.264 µM (active)
Kd [9]: > 30 µM (inactive)
Kd [10]: > 30 µM (inactive)
Structure (SMILES): CCS(=O)(=O)c1cccc(-c2cc(C(=O)NC3CCN(C)CC3)c(C)c3[nH]c4ncc(C)cc4c23)c1 [TAK-901]

Kd [1]: > 30 µM (inactive)
Kd [2]: > 30 µM (inactive)
Kd [3]: > 30 µM (inactive)
Kd (Ephrin type-B receptor 2): > 30 µM (inactive)
Kd [4]: > 30 µM (inactive)
Kd [5]: > 30 µM (inactive)
Kd [6]: > 30 µM (inactive)
Kd [7]: > 30 µM (inactive)
Kd [8]: > 30 µM (inactive)
Kd (Focal adhesion kinase 1): > 30 µM (inactive)
Kd [9]: > 30 µM (inactive)
Kd [10]: > 30 µM (inactive)
Structure (SMILES): O=C(Cc1ccc(-c2ccc(OCCN3CCOCC3)cc2)cn1)NCc1ccccc1 [TIRBANIBULIN]

Further lines, the compound ahead of its results:

Structure (SMILES): CC(=O)c1cnc2ccc(-c3cc(Cl)c(O)c(Cl)c3)nc2c1N[C@H]1CC[C@H](CN(C)C)CC1
Kd [1]: 0.28 µM (active)
Kd [2]: 0.288 µM (active)
Kd [3]: > 30 µM (inactive)
Kd (Ephrin type-B receptor 2): 0.149 µM (active)
Kd [4]: > 30 µM (inactive)
Kd [5]: > 30 µM (inactive)
Kd [6]: > 30 µM (inactive)
Kd [7]: > 30 µM (inactive)
Kd [8]: > 30 µM (inactive)
Kd (Focal adhesion kinase 1): 0.118 µM (active)
Kd [9]: > 30 µM (inactive)
Kd [10]: > 30 µM (inactive)

Structure (SMILES): N#CC1(c2ccc(NC(=O)c3cccnc3NCc3ccncc3)cc2)CCCC1 [RIVOCERANIB]
Kd [1]: > 30 µM (inactive)
Kd [2]: > 30 µM (inactive)
Kd [3]: > 30 µM (inactive)
Kd (Ephrin type-B receptor 2): > 30 µM (inactive)
Kd [4]: > 30 µM (inactive)
Kd [5]: > 30 µM (inactive)
Kd [6]: > 30 µM (inactive)
Kd [7]: > 30 µM (inactive)
Kd [8]: > 30 µM (inactive)
Kd (Focal adhesion kinase 1): > 30 µM (inactive)
Kd [9]: > 30 µM (inactive)
Kd [10]: > 30 µM (inactive)

Structure (SMILES): CCNC(=O)C#Cc1ccc2c(c1)NC(=O)/C2=C(\Nc1ccc(CN(C)C)cc1)c1ccccc1
Kd [1]: 1.59 µM (active)
Kd [2]: > 30 µM (inactive)
Kd [3]: > 30 µM (inactive)
Kd (Ephrin type-B receptor 2): > 30 µM (inactive)
Kd [4]: 2.51 µM (active)
Kd [5]: > 30 µM (inactive)
Kd [6]: > 30 µM (inactive)
Kd [7]: > 30 µM (inactive)
Kd [8]: > 30 µM (inactive)
Kd (Focal adhesion kinase 1): > 30 µM (inactive)
Kd [9]: > 30 µM (inactive)
Kd [10]: > 30 µM (inactive)

Structure (SMILES): Cc1cc(Nc2ncnc3ccc(NC4=NC(C)(C)CO4)cc23)ccc1Oc1ccn2ncnc2c1 [TUCATINIB]
Kd [1]: > 30 µM (inactive)
Kd [2]: > 30 µM (inactive)
Kd [3]: > 30 µM (inactive)
Kd (Ephrin type-B receptor 2): > 30 µM (inactive)
Kd [4]: > 30 µM (inactive)
Kd [5]: > 30 µM (inactive)
Kd [6]: > 30 µM (inactive)
Kd [7]: > 30 µM (inactive)
Kd [8]: > 30 µM (inactive)
Kd (Focal adhesion kinase 1): > 30 µM (inactive)
Kd [9]: > 30 µM (inactive)
Kd [10]: > 30 µM (inactive)

Structure (SMILES): COc1cc2ncnc(Oc3cccc(NC(=O)Nc4cc(C(C)(C)C(F)(F)F)on4)c3)c2cc1OC [CEP-32496]
Kd [1]: 0.05 µM (active)
Kd [2]: > 30 µM (inactive)
Kd [3]: > 30 µM (inactive)
Kd (Ephrin type-B receptor 2): > 30 µM (inactive)
Kd [4]: > 30 µM (inactive)
Kd [5]: > 30 µM (inactive)
Kd [6]: 0.872 µM (active)
Kd [7]: > 30 µM (inactive)
Kd [8]: > 30 µM (inactive)
Kd (Focal adhesion kinase 1): > 30 µM (inactive)
Kd [9]: > 30 µM (inactive)
Kd [10]: > 30 µM (inactive)

Structure (SMILES): CCS(=O)(=O)N1CCN(c2ccc(Nc3ncc(C(N)=O)c(NC4CC4)n3)cc2)CC1 [Cerdulatinib Hydrochloride]
Kd [1]: > 30 µM (inactive)
Kd [2]: > 30 µM (inactive)
Kd [3]: > 30 µM (inactive)
Kd (Ephrin type-B receptor 2): > 30 µM (inactive)
Kd [4]: > 30 µM (inactive)
Kd [5]: 1.48 µM (active)
Kd [6]: > 30 µM (inactive)
Kd [7]: > 30 µM (inactive)
Kd [8]: > 30 µM (inactive)
Kd (Focal adhesion kinase 1): > 30 µM (inactive)
Kd [9]: > 30 µM (inactive)
Kd [10]: > 30 µM (inactive)
